In ChEMBL document CHEMBL1140524, “Facile one-pot synthesis of thio and selenourea derivatives: a new class of potent urease inhibitors” (Bioorg Med Chem Lett, 2007):
Calls of active or inactive are those of the source. The calls are words filed in the database; no cut-off is given here.

Target: Urease (Canavalia ensiformis) (UniProt P07374)
Experiment: (§1) Inhibition of jack bean urease

Urease (Canavalia ensiformis), sequence (P07374 whole entry, looked up): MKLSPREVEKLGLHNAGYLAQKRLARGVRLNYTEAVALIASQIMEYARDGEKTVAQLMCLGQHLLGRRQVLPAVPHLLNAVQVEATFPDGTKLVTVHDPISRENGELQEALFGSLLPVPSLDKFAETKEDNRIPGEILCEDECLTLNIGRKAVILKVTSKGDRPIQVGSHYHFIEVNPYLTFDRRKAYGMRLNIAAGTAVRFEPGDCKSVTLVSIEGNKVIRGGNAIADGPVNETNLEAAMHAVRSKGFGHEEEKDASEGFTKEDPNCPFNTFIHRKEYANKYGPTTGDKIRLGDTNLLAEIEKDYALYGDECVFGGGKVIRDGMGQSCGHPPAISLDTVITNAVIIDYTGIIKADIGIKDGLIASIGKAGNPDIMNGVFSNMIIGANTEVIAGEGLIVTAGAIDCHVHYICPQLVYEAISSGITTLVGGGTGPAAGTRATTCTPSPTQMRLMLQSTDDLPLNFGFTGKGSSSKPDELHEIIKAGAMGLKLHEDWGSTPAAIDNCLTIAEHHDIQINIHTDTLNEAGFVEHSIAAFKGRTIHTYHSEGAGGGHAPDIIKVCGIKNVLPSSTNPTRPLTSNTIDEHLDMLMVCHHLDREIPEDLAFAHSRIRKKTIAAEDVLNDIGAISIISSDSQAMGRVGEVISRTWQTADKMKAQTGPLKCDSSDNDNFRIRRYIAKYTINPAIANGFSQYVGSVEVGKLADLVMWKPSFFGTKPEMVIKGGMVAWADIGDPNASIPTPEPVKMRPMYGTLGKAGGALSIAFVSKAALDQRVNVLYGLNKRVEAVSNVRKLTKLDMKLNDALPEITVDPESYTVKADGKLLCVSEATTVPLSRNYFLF

For `CN(C)C(=S)N1CCOCC1`, the Activity was “inactive”.
`CN(C)C(=[Se])N1CCOCC1` was tested, and the Activity was “inactive”.

Target: Urease (Canavalia ensiformis, UniProt P07374)
Experiment: as §1

Urease, sequence (P07374 whole entry): as the sequence (P07374 whole entry, looked up) above

First: CN(C)C(=[Se])NCc1ccc(Br)cc1
Second: CN(C)C(=S)Nc1ccc(Br)cc1
The Ki of the first is 1.9-fold lower: 0.135 µM for the first, 0.255 µM for the second.

`CCCCCCCCCCCCNC(=S)N(C)C` and `C[C@H](NC(=[Se])N(C)C)c1cccc2ccccc12` are within 1.5-fold of each other in Ki: 0.124 µM for the first, 0.094 µM for the second.

`CC(C)N(C(=[Se])N(C)C)C1CCCCC1` showed a Ki of 0.025 µM.
